{"source": "patent US12186365B2", "about": "“Composition for regulating cell division comprising FCHO1 modulator, and method for regulating cell division using same” (SEOUL NATIONAL UNIVERSITY R&DB FOUNDATION, priority 2015, dated 2025)", "molecules": {"B1": {"name": "Δ563-564: human FCHo1 with 563-564aa deleted (MMP-9 cleavage site), expressed in A549 cells (protein)", "chain": "MSYFGEHFWGEKNHGFEVLYHSVKQGPISTKELADFIRERATIEETYSKAMAKLSKLASNGTPMGTFAPLWEVFRVSSDKLALCHLELTRKLQDLIKDVLRYGEEQLKTHKKCKEEVVSTLDAVQVLSGVSQLLPKSRENYLNRCMDQERLRRESTSQKEMDKAETKTKKAAESLRRSVEKYNSARADFEQKMLDSALRFQAMEETHLRHMKALLGSYAHSVEDTHVQIGQVHEEFKQNIENVSVEMLLRKFAESKGTGREKPGPLDFEAYSAAALQEAMKRLRGAKAFRLPGLSRREREPEPPAAVDFLEPDSGTCPEVDEEGFTVRPDVTQNSTAEPSRFSSSDSDFDDEEPRKFYVHIKPAPARAPACSPEAAAAQLRATAGSLILPPGPGGTMKRHSSRDAAGKPQRPRSAPRTSSCAERLQSEEQVSKNLFGPPLESAFDHEDFTGSSSLGFTSSPSPFSSSSPENVEDSGLDSPSHAAPGPSPDSWVPRPGTPQSPPSCRAPPPEARGIRAPPLPDSPQPLASSPGPWGLEALAGGDLMPAPADPTAREGLAAPPRRSRKVSCPLTRSNGDLSRSLSPSPLGSSAASTALERPSFLSQTGHGVSRGPSPVVLGSQDALPIATAFTEYVHAYFRGHSPSCLARVTGELTMTFPAGIVRVFSGTPPPPVLSFRLVHTTAIEHFQPNADLLFSDPSQSDPETKDFWLNMAALTEALQRQAEQNPTASYYNVVLLRYQFSRPGPQSVPLQLSAHWQCGATLTQVSVEYGYRPGATAVPTPLTNVQILLPVGEPVTNVRLQPAATWNLEEKRLTWRLPDVSEAGGSGRLSASWEPLSGPSTPSPVAAQFTSEGTTLSGVDLELVGSGYRMSLVKRRFATGMYLVSC", "modifications": "Fcho1 delta563-564", "notes": "human FCHo1 with 563-564aa deleted (MMP-9 cleavage site), expressed in A549 cells"}}, "key": {"cells [1]": {"test_system": "cells", "test": "Real-time cell growth measurement using Xcelligence", "assay_type": "cell-based", "conditions": "peptides treated in 10 μM, FIG. 30", "procedure": "Cell viability was measured using Xcelligence for in real time observation, and the peptides were treated in 10 μM. […] The results are illustrated in FIG. 30."}, "FCHo1 cleavage": {"test_system": "FCHo1 cleavage", "test": "Immunoblot of FCHo1 cleavage in A549 cell extract with or without MG132", "assay_type": "cell-based, human", "conditions": "1 μM MG132, 16 hours, A549 cells", "procedure": "The cells were dissolved in IP dissolution buffer for 30 min at 4° C. After centrifugation at 17,000×g for 30 minutes, the concentration of the protein was measured, and the same amount of lysate was used for immunoprecipitation. The immunoprecipitation was carried out overnight at 4° C. using anti-FLAG M^2 affinity gel (Sigma-Aldrich). The precipitate was washed three times with washing solution, and the precipitated proteins were separated using SDS-PAGE. Western blotting was carried out using anti-rabbit antibodies conjugated with specific antibodies and secondary anti-mouse IgG Veriblot or horseradish peroxidase. The results were visualized using a chemiluminescence detector (Atto Ez-Capture MG).\nTo test the potential involvement of specific proteases to cleave FCHo1, the cells were treated with 1 μM MG132, a protease inhibitor for 16 hours. Immunoblotting of the A549 cell extract was performed in the presence or absence of the MG132 protease inhibitor, and the results are illustrated in FIG. 5."}, "cells [2]": {"test_system": "cells", "test": "Intracellular uptake of biotin-conjugated peptides (streptavidin-488, CLSM)", "assay_type": "cell-based", "conditions": "biotin-conjugated peptide, no carrier or CPP, FIG. 29", "procedure": "Biotin-conjugated peptides were treated to cells and fixed on the cells, followed by reaction with streptavidin-488 fluorescent dye, followed by observation with CLSM. The results are illustrated in FIG. 29."}, "Akt1": {"molecular_target": "T1, Akt1 (Homo sapiens, UniProt P31749)", "T1 construct": "After treating with the cell lysates; endogenous in cells", "test": "In vitro binding of biotin-conjugated FCHo1-derived peptides to Akt1 (streptavidin plate, cell lysates, Akt1 antibody)", "conditions": "biotin-conjugated peptide on streptavidin plate, FIG. 28", "excerpt": "To confirm the binding affinity between Akt1 and Akt1 motif-containing FCHo1 amino acid sequence-derived peptides, biotin was conjugated to peptides to complete the synthetization. The peptides were reacted and attached to on the streptavidin-attached plate. After treating with the cell lysates, the binding affinity of the peptide and Akt1 was confirmed by the Akt1 antibody. The experiment process and its result of confirming in vitro binding affinity of Akt1 according to respective peptides derived from FCHo1 binding sites are illustrated in FIG. 28."}, "mouse FCHo1": {"test_system": "mouse FCHo1", "test": "FCHo1 inhibitory effect of shRNA sequences acting on mouse FCHo1", "conditions": "among four shRNA sequences, SEQ ID NOs: 1 to 4", "procedure": "(§1) H&E slides were prepared to confirm whether adenoma and hyperplasia were reduced. The shFCHo1 was used for FCHo1 cleavage inhibition. The sequence thereof is represented in SEQ ID NOs: 1 to 4 based on FIG. 26. […] Therefore, this was used to perform this experiment."}, "[3]": {"test_system": "lung cancer model mouse (K-ras)", "test": "Anticancer effect of aerosol-delivered lentiviral FCHo1 vectors in lung cancer model mouse", "assay_type": "in vivo", "conditions": "K-ras female mice, lentiviral vector inhaled 8 times for 4 weeks, H&E slides, 5 mice per group", "procedure": "Lentiviral vectors were prepared for the full-length, mutation type and deletion type of FCHo1 and transferred to lung cancer model mouse in a non-invasive aerosol method. Then their anticancer effects were confirmed. Example 8 confirmed that the sites involved in FCHo1 cleavage in human cells were FCHo1^S570A and FCHo1^del563-564. Therefore, corresponding positions were confirmed in mouse FCHo1. It was confirmed that S570A corresponded to S554A and del563-564 corresponded to del544-545. […] Then, the anticancer effects thereof were compared. The results are illustrated in FIG. 25.\nas §1"}, "A549 cells": {"test_system": "A549 cells", "test": "Midbody formation in A549 cells expressing FCHo1 constructs (CLSM, MKLP1 staining)", "assay_type": "cell-based, human", "conditions": "A549 cells in mitosis, compared with wild-type FCHo1", "procedure": "A549 cells were placed in 8-well chamber cover glasses or high-precision cover glasses and were fixed with 3% paraformaldehyde for 10 minutes at room temperature, permeabilized with 0.5% TRITON® X-100 (Sigma-Aldrich) for 5 min, blocked for 30 minutes. Then, the cells were incubated with primary or secondary antibodies in blocking solution (PBS with 0.1% saponin and 3% BSA). Alexa Fluor 647 conjugated anti-rabbit secondary antibody and an oxygen scavenging system (0.5 mg/ml glucose oxidase, 40 μg/ml catalase, 10% glucose, pH 7.4) were used for stochastic optical reconstruction microscopy (dSTORM) imaging. Before imaging, 30 mM mercaptoethylamine ([…]; Sigma) was added to obtain a final thiol concentration of 10-200 mM. All dSTORM and SIM images were obtained from Carl Zeiss ELYRA PS.1 (super-resolution microscopy), and all CLSM images were obtained from the Carl Zeiss LSM710 (confocal laser scanning microscope). […]\nIn the analysis using the synchronization method, the cells were stained with MKLP1 antibody for the central spindle or midbody type analyses. The rates of cells in anaphase (central spindle) and telophase (midbody) were quantified via CLSM images: FCHo1 siRNA (n=318), wt FCHo1 (n=702), FCHo1 Δ563-564 (n=756) and FCHo1 Δ531-589 (n=1952). […]"}}, "note": "Marks after values point to notes of the source that are not given here. Ends that are not written are not given here. Peptide text beside a SMILES is read from it. * marks the point of attachment. Cbz = O=C(OCc1ccccc1)*", "data": [{"molecule": "560-567: peptide derived from the FCHo1 amino acid sequence, residues 560-567 (PPRRLRSR; UniProt O14526 560-567, looked up, fragment)", "values": [{"measurement": "inhibitory effect on cell growth", "setting": "cells [1]", "value": "inhibitory effects on the cell growth"}]}, {"molecule": "CC(C)C[C@@H](C=O)NC(=O)[C@H](CC(C)C)NC(=O)[C@H](CC(C)C)NC(=O)OCc1ccccc1", "note": "[MG132] (Cbz-Leu-Leu-Leu-aldehyde)", "values": [{"measurement": "cleaved FCHo1 protein (immunoblot)", "setting": "FCHo1 cleavage", "value": "completely disappeared"}]}, {"molecule": "PPRRLRSRKVSC [560-571, PPRRLRSRKVSC]", "values": [{"measurement": "absorption into a cell", "setting": "cells [2]", "value": "increase in absorption into a cell in a concentration-dependent manner"}]}, {"molecule": "RRLRSRKVSC (FCHo1 fragment) [562-571]", "values": [{"measurement": "Akt1 binding affinity", "setting": "Akt1", "value": "significantly increased"}, {"measurement": "inhibitory effect on cell growth", "setting": "cells [1]", "value": "inhibitory effects on the cell growth"}]}, {"molecule": "shFCHo1: shRNA acting on mouse FCHo1, SEQ ID NO: 2 (GAGAGAACACCAGCCAGAAUCUCUUCUGGCUGGUGUUCUCUC; hairpin, further chemistry not given here)", "values": [{"measurement": "FCHo1 inhibitory effect", "setting": "mouse FCHo1", "value": "most significant FCHo1 inhibitory effect"}, {"measurement": "No. of Adenocarcinoma", "setting": "[3]", "value": "0.20 ± 0.45"}, {"measurement": "No. of Adenoma", "setting": "[3]", "value": "0.60 ± 0.55"}, {"measurement": "No. of hyperplasia foci", "setting": "[3]", "value": "0.60 ± 0.55**^,#"}]}, {"molecule": "B1", "values": [{"measurement": "midbody formation", "setting": "A549 cells", "value": "inhibited the midbody formation"}]}]}
